The term half-life denotes the time needed for the level to fall by half in the phase considered. Low values mean rapid decline, high ones slow decline. A word on the IC90: it is the point of the concentration-response curve where the effect stands at 90%. In general, IC50 refers to the concentration needed to halve the response being measured. The term Kd denotes a measure of binding affinity in units of concentration. Lower therefore signals a tighter complex. As a reminder, the EC50 is the concentration needed to bring the measured effect to its halfway point.

SMILES strings stand for the structures. Where “and” joins values, the source holds several entries; their conditions need not be identical. Equal entries are not always repeated. Where two headings read alike, the source gives them in different places.

In data set [1] the target is T1, DENV2 sE2 (Dengue virus type 2, UniProt P14340). The experiment in a line: biochemical. It counts as binding, Dengue virus 2. The settings on record: for IC50: IC50 (AlphaScreen). (In general: Alpha assays give light when donor and acceptor beads are brought close together.)
Data set [2] can be described thus: Mouse microsomal stability. The settings on record: mouse microsomes.
For another data set, the system named is DENV2. In words: Antiviral activity (viral infectivity) assay, single-cycle viral yield. It counts as cell-based, Dengue virus 2. The settings on record: for IC90: Dengue virus.
The target of data set [3] is T1, DENV2 sE2. The experiment in a line: biochemical. It counts as binding, Dengue virus 2.
A short description of data set [4]: Dynamic light scattering particle size. It counts as physicochemical. The settings on record: DLS, 40 μM compound; for Particle size (with Tween 20): with detergent; for Particle size (no Tween): without detergent.
For a further data set, the system named is VSV-eGFP. The experiment in a line: microbe, parasite or virus in culture. It is filed as cell-based, vesicular stomatitis virus. The conditions noted are these: for inhibition at 5 µM / inhibition at 10 µM: Vesicular stomatitis virus, 6 h; for inhibition at 5 µM: read-out: VSV 5 μM; for inhibition at 10 µM: read-out: VSV 10 μM.
The nature of data set [5]: Cytotoxicity assay (CellTiter-Glo). The settings on record: hamster. In general terms: In ATP-based viability assays light output follows the ATP content of the culture.
Protocol: (§1) BHK21 cells (MEM with 2% FBS) were incubated with varying concentrations of inhibitor in a 96-well white plate for 24 hours at 37° C. and 5% CO2. CellTiter-Glo (Promega) solution was used to measure viability following the manufacturer's instructions. Luminescence was measured using a Biotek Synergy plate reader. […] The maximum concentration tested was 100 μM.
For the next data set, the target named is AmpC β-lactamase (Escherichia coli, UniProt P00811). In words: biochemical.
The nature of another data set: in vitro. The settings on record: hamster.
In another data set the test system is DENV1, 2, 3, 4; ZIKV. In words: Plaque reduction assay (PRNT). It is filed as cell-based. The settings on record: Zika virus, DENV1, read-out: EC50 (PRNT). How it is done: DENV1, 2, 3, 4 were tested on BHK-21 cells, and ZIKV was tested on Vero cells. Virus inocula were diluted in EBSS to 2500 pfu/ml as the final concentration, and were pre-incubated with different concentrations of small molecule inhibitors (2% DMSO vol/vol final concentration) for 45 min at 37° C., 5% CO2. The mixture (200 μl, 500 pfu of virus) was then added to cells for 1 hour (37° C., 5% CO2) to allow infection, after which the inoculum was removed, and the cells were washed with 1×PBS to remove unbound virus and compound. Cells were overlaid with carboxylmethylcellulose and incubated at 37° C., 5% CO2 to allow the formation of plaques (4 days for DENV1, 2, 3, 4 and 2-3 days for ZIKV). The cells were fixed and plaques visualized by staining of the cell monolayers with crystal violet Empirical analysis was performed to determine the PRNT50 (EC50 (PRNT)) value, defined as the inhibitor concentration needed to reduce plaque formation by 50%.
(Plaques are areas of infected cells; plaque reduction assays count them against a control.)

The mark [6] stands for this setting: T1/2 (mouse microsome), mouse microsomal stability.
Where [7] appears, read: DENV2, read-out: IC90 versus DENV2.
Setting [8] is: DENV2, concentration that reduces single-cycle viral yield by 10-fold, read-out: IC90 (DENV2 infectivity).
The mark [9] stands for this setting: concentration that inhibits 50% luminescence signal in the AlphaScreen competition assay, Table 1.
[10] abbreviates: IC50 (AmpC, Triton), with detergent (0.01% Triton X-100).

Chain of AmpC β-lactamase (P00811 20-377): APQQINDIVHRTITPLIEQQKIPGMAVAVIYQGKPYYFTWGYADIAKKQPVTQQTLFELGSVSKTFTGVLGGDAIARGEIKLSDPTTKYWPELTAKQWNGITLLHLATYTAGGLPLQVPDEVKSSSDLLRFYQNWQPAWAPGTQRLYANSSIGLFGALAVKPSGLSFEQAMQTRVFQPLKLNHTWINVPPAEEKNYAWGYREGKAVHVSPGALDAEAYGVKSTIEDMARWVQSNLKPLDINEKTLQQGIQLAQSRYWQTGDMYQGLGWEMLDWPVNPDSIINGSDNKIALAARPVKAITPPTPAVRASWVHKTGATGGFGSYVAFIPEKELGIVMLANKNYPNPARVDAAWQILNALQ
Protocol for in vitro: as §1

`NC(=O)c1cccc(-c2cc(Nc3ccc(OC(F)(F)F)cc3)ncn2)c1` [GNF2, reference compound]: at DENV2 sE2 [1] (GNF2-biotin on donor beads, His6-tagged DENV2 sE2 on acceptor beads), the “competition of AlphaScreen signal” value is given as “competed away in a dose-dependent fashion”.
For the compound `Cc1ccc(CCNC(=O)c2cnn3c(O)c(Cc4cc(C)ccc4C)c(C)nc23)cc1` [Compound K786-9739], the half-life in data set [2] (setting [6]) turned out to be 14.9 min. Moreover, the IC90 in the data set on DENV2 (setting [7]) is 3 µM. In the data set with DENV2 (setting [8]), the IC90 turned out to be 3.1 ± 0.1 µM. Besides, at DENV2 sE2 [1] (setting [9]), the 50% inhibitory concentration (IC50) was 3 ± 1.7 µM. Further, on DENV2 sE2 [3], binding was put at a Kd of 1.3 µM. Also, in [4], the “Particle size (with Tween 20)” value is recorded as 7.1 (40 μM) nm and the “Particle size (no Tween)” value was 628 (40 μM) nm. For the same compound, in the data set on VSV-eGFP, the inhibition at 5 µM is 35% and the inhibition at 10 µM is 63%. The CC50 at 24 h in data set [5] was found to be 81 µM.
In the case of `Cc1nc2c(C(=O)NCC3CCCN(C)C3)cnn2c(O)c1Cc1ccc(F)cc1` (stereo not drawn) [JBJ-16-104], the “IC50 (AlphaScreen)” value against DENV2 sE2 [1] (Table 2) is given as “No competition”.
Consider `Cc1nc2c(C(=O)NCc3cccnc3)cnn2c(O)c1Cc1ccc(F)cc1` [JBJ-16-105], for which the “(Anti-DENV2)% at 3 μM” value in the data set on DENV2 (3 μM) was 20%. In the data set on DENV2 (10 μM), the “(Anti-DENV2)% at 10 μM” value stood at 86%. On DENV2 sE2 [1] (Table 2), the IC50 was more than 10 µM.
Regarding `CN(CC(=O)N(Cc1ccc(C2CCCCC2)cc1)c1ccc(C(=O)O)cc1)S(=O)(=O)c1c(F)c(F)c(F)c(F)c1F` [Compound S7337], in data set [2] (setting [6]), the half-life was determined as 3.2 min. In addition, the figures for the IC90 in the data set with DENV2 (setting [7]) and in the data set on DENV2 (setting [8]) were 3 µM and 2.7 ± 1 µM, respectively. Besides, the IC50 at DENV2 sE2 [1] (setting [9]) was 4.1 ± 1.8 µM; against AmpC β-lactamase (IC50 (AmpC), without detergent), more than 100 µM; on AmpC β-lactamase (setting [10]), more than 100 µM. The same compound showed a Kd at DENV2 sE2 [3] of 1.3 µM. Also, in data set [4], the “Particle size (with Tween 20)” value was 8.2 (40 μM) nm. Further, the “Particle size (no Tween)” value in [4] is on record as 144 (40 μM) nm. In addition, the “inhibition of VSV-eGFP in counter screen” value in the data set on VSV-eGFP is “less potency”. Besides, the CC50 at 24 h in data set [5] was determined as 12.7 µM.
For the compound `CCCc1nn2c(=O)cc(CSc3nc(-c4ccc(C)cc4)nc4cc(=O)[nH]n34)nc2s1` [Compound G199-0398], the half-life in data set [2] (setting [6]) was 70.6 min. This compound also had a half-life in data set [2] (stability half-life (text, printed Ti)) of approximately 70 min. Further, the IC90 in the data set with DENV2 (setting [8]) came to 8.8 ± 0.2 µM. The IC50 on DENV2 sE2 [1] (setting [9]) came to 7 ± 3 µM. Besides, in data set [4], the “Particle size (with Tween 20)” value is 7.2 (40 μM) nm and the “Particle size (no Tween)” value is 268 (40 μM) nm. In the data set with VSV-eGFP, the “inhibition of VSV-eGFP in counter screen” value was “strong inhibition efficiency”, the inhibition at 5 µM is 33% and the inhibition at 10 µM is 59%. The CC50 at 24 h in [5] was found to be 68 µM.
The compound `COc1cc(C(=O)NS(=O)(=O)c2ccccc2C)ccc1Cc1cn(C)c2ccc(NC(=O)OC3CCCC3)cc12` [Compound S1633] registered a half-life in data set [2] (setting [6]) of 37.7 min. For the same compound, the IC90 with DENV2 (setting [8]) is 7 ± 2.8 µM. Also, the CC50 at 24 h in “in vitro” was found to be 50 µM. The compound also came in with an IC50 on DENV2 sE2 [1] (setting [9]) of 3.1 ± 1 µM. At DENV2 sE2 [3], this compound had a Kd of 5.2 µM. The compound also returned an IC50 at AmpC β-lactamase (IC50 (AmpC), without detergent) of 36.6 µM. The same compound showed a concentration for half-maximal inhibition (IC50) on AmpC β-lactamase (setting [10]) of more than 100 µM. Further, in data set [4], the “Particle size (with Tween 20)” value is on record as 9.2 (40 μM) nm and the “Particle size (no Tween)” value was 823 (40 μM) nm. In addition, in the data set with VSV-eGFP, the inhibition at 5 µM came out at 12% and the inhibition at 10 µM is 40%.
In data set [2] (setting [6]), `COc1ccc(Nc2cc(C)c3cc(NC(=O)c4ccc(N(C)C)cc4)ccc3n2)cc1` [Compound C066-4182] came in with a half-life of 5.3 min. Moreover, the IC90 in the data set on DENV2 (setting [8]) worked out at 17 ± 4.5 µM. Moreover, the IC50 at DENV2 sE2 [1] (setting [9]) was 1.4 ± 1.1 µM. On DENV2 sE2 [3], this compound registered a Kd of 2.2 µM. Also, in the data set with VSV-eGFP, the inhibition at 5 µM is 5% and the inhibition at 10 µM was determined as 22%. The compound further registered a CC50 at 24 h in data set [5] of more than 50 µM.
Take `CCOc1ccc(CCNC(=O)c2cnn3c(O)cc(C4CCN(C(=O)OC(C)(C)C)CC4)nc23)cc1` [Compound C429-0385]: in the data set with DENV2 (DENV2, read-out: IC90 (DENV2 infectivity)), the IC90 was approximately 3 µM. Also, the IC50 at DENV2 sE2 [1] (Table 3) is 7.6 µM and 5.3 µM. Also, the concentration for a half-maximal effect (EC50) in the data set on DENV1, 2, 3, 4; ZIKV was determined as 0.6 µM. The compound further gave a CC50 at 24 h in data set [5] of more than 100 µM.
`Cc1cc(C(C#N)c2ccc(Cl)cc2)c(Cl)cc1NC(=O)c1cc(I)cc(I)c1O` (stereo not drawn) [Compound S4105] gave a half-life in data set [2] (setting [6]) of more than 120 min. The IC90 with DENV2 (setting [7]) was 3 µM; with DENV2 (setting [8]), 0.8 ± 0.3 µM. The compound also gave a CC50 at 24 h in the data set “in vitro” of 50 µM. Further, the IC50 on DENV2 sE2 [1] (setting [9]) is 0.6 ± 0.2 µM; against AmpC β-lactamase (IC50 (AmpC), without detergent) it was 19.5 µM; on AmpC β-lactamase (setting [10]), more than 100 µM. Moreover, on DENV2 sE2 [3], the Kd is 0.9 µM. The “Particle size (with Tween 20)” value in [4] was 13.1 (40 μM) nm. In [4], the “Particle size (no Tween)” value is 82 (40 μM) nm. The “VSV 5 μM” value in the data set on VSV-eGFP is recorded as 60%. Besides, the “VSV 10 μM” value in the data set on VSV-eGFP is listed as 64%.
In the case of `Oc1ccc(C2NCCc3c2[nH]c2ccc(Cl)cc32)cc1O` (stereo not drawn) [Compound C200-9144], the half-life in [2] (setting [6]) came out at 55.6 min. In the data set with DENV2 (setting [7]), the IC90 amounted to 3 µM. Also, the IC90 in the data set on DENV2 (setting [8]) was found to be 1.2 ± 0.4 µM. For the same compound, at DENV2 sE2 [1] (setting [9]), the IC50 worked out at 2.6 ± 1.3 µM. On DENV2 sE2 [3], this compound returned a dissociation constant (Kd) of 1.2 µM. Moreover, in data set [4], the “Particle size (with Tween 20)” value is recorded as 8.3 (40 μM) nm and the “Particle size (no Tween)” value is given as 1443 (40 μM) nm. In the data set with VSV-eGFP, the “inhibition of VSV-eGFP in counter screen” value is recorded as “less potency”, the inhibition at 5 µM stood at 76% and the inhibition at 10 µM came to 77%. The CC50 at 24 h in data set [5] is more than 50 µM.
With `Cc1nc2c(C(=O)NCc3ccc4c(c3)OCO4)cnn2c(O)c1Cc1ccccc1F` [Compound C218-0288], 1.9 µM corresponded to half-maximal inhibition at DENV2 sE2 [1] (Table 3) (IC50). That is a single-digit micromolar value.
In the case of `Cc1nc2c(C(=O)NC3CCN(C)CC3)cnn2c(O)c1Cc1ccc(F)cc1` [JBJ-16-103], at DENV2 sE2 [1] (Table 2), the “IC50 (AlphaScreen)” value was “No competition”.
In turn, `COC(=O)c1ccc(Cl)cc1NC(=O)CSc1ncc(S(=O)(=O)c2ccc(Br)cc2)c(=O)[nH]1` [Compound C200-5340] returned a half-life in data set [2] (setting [6]) of 4.2 min. Also, in the data set with DENV2 (setting [8]), the IC90 was 7.2 ± 3.5 µM. In addition, the IC50 at DENV2 sE2 [1] (setting [9]) turned out to be 3 ± 1.1 µM. The compound also returned a Kd on DENV2 sE2 [3] of 7.1 µM. Besides, in data set [4], the “Particle size (with Tween 20)” value is on record as 7.5 (40 μM) nm and the “Particle size (no Tween)” value was 966 (40 μM) nm. For the same compound, in the data set on VSV-eGFP, the “inhibition of VSV-eGFP in counter screen” value was “less potency”, the inhibition at 5 µM was 20% and the inhibition at 10 µM came out at 51%. The same compound gave a CC50 at 24 h in data set [5] of more than 50 µM.

Values taken from patent publication US20200360381A1, “COMPOUNDS FOR TREATING DENGUE VIRUS INFECTION AND OTHER VIRAL INFECTIONS” (priority 2017, published 2020).
